Measured values as given in paper PMC12747932, “Crystal structures of Kif2A complexed with WDR5 reveal the structural plasticity of WIN-S7 sites” (Acta Biochimica et Biophysica Sinica, 2025).

Molecular target: T1, human WDR5 (residues 24–334) (Homo sapiens, UniProt P61964)
T1 construct: human WDR5 seven tandem WD-40 domain (residues 24–334); GST (N, cleaved yes); made in house; host or cells: Escherichia coli BL21 (DE3)
Assay: ITC assay of Kif2A peptides titrated into WDR5
Conditions: wild-type WDR5 0.05 mM, peptide approx. 1 mM, 20 mM Tris-HCl, 200 mM NaCl, pH 7.5, 20°C, mean±SD of a minimum of two experiments, N.D. = not detectable binding
Excerpt: The DNA fragment encoding the human WDR5 seven tandem WD-40 domain (residues 24–334) was amplified via PCR from the human brain and bone marrow cDNA library and cloned and inserted into the pGEX-4T1 vector, which was modified to include an N-terminal GST tag and a TEV cleavage site (ENLYFQ/GSHM) (where ‘/’ denotes the cleavage site). The Y191F variant of WDR5 was generated using a MutanBEST kit (TaKaRa, Dalian, China) and verified via DNA sequencing. Proteins were expressed in Escherichia coli BL21 (DE3) cells (Novagen, Darmstadt, Germany) cultured in Luria-Bertani medium at 37°C. Protein expression was induced with 0.2 mM isopropyl β-D-1-thiogalactopyranoside (IPTG) once the optical density at 600 nm (OD600) reached 0.8, and the cultures were shifted to 16°C for incubation for 18 h. The cells were harvested by centrifugation and resuspended in Buffer A (20 mM Tris-HCl, 1 M NaCl, pH 8.0) supplemented with DNase I (10 U) and cOmplete, EDTA-free Protease Inhibitor Cocktail (1 tablet dissolved in 1 mL of sterile water), after which they were lysed by ultrasonication. […]
ITC assays were performed on a Microcal PEAQ-ITC instrument (Malvern Panalytical, Westborough, USA) at 20°C as previously described. Protein concentrations were quantified by measuring the absorbance at 280 nm and diluted to 0.05 mM with Buffer E. Peptides were prepared at approximately 1 mM in the same buffer. […]

KD, dissociation constant: completely abolished binding
Sequence: GSAAARPSQ [Kif2A ^R117A, Kif2A 114–122 peptide with R117A mutation, …]
